A value given as a limit tells only on which side of the number the result lay.

As a reminder, the LD50 is the dose expected to kill half of the subjects tested. Lower therefore signals greater toxicity.

For series [1] the following is noted: J. Pharm. Dyu.7, 836-848 (1984); cited from earlier work.
The test system of series [2] is herpes simplex virus type I. Put plainly: Survival of mice infected with a lethal dose of herpes simplex virus type I (Experimental Example 2). Format: in vivo, BALB/c mice. The following applies: HSV type I 3×10^5 PFU/kg i.p., 10 μg/kg oral, before and after infection. Here is the method: In this example, 7-week-old BALB/c mice were infected intraperioneally with a lethal dose (3×10^5 PFU/kg) of herpes simplex virus type I. Two days before the infection, 1 day and 4 days after the infection, the active ingredient of the present agent (10 μg/kg) or physiological saline (control) was orally administered through a stomach probe into the mice. Twenty-five days after the infection, their survival rate was determined to evaluate the action of the active ingredient. In this experiment, the experimental mice were given the active ingredient of the present agent before and after infection with the virus to evaluate its action mainly on the prevention and treatment of the virus infection.

Series [3] can be described thus: Acute toxicity of aconite-alkaloids. The following applies: in vivo.
The test system of series [4] is herpes simplex virus type I. Put plainly: animal or person. Format: in vivo, BALB/c male mice. The following applies: thermally injured mice, HSV type I 3×10^3 PFU/kg i.p., oral 1 μg/kg of aconite-alkaloid; for responders at 0.001 mg/kg: Mus musculus, 600 h, read-out: survival rate; for average survival days: 25 days.
Series [5] relates to suppressor cell activities induced in thermally injured mice. It counts as cell-based, BALB/c mice. Conditions: 1 μg/kg of aconite-alkaloid given twice to contrasuppressor cell donors; normal model 12413 ± 1438, susceptibility model 2650 ± 70.
Series [6] deals with suppressor cell activities. The series is described as follows: Contrasuppressor cell activities in MLTR, suppressor cells from LP-BM5 virus infected mice. It counts as cell-based. Conditions: 1 μg/kg, suppressor cells from mice 110 days after infection with LP-BM5 virus. Here is the method:
Contrasuppressor cell activities, i.e. cells activities suppressing the suppressor cell activities induced in thermally injured mice were determined in mixed lymphocyte tumor cell reaction (MLTR) by mixing and incubating the following cells for 5 days in a 96-wells round-bottom microplate.
Reaction cells: Spleen mononuclear cells (referred to hereinafter as SMNCs) (5.0×10^4 cells/well) obtained from normal BALB/c mice.
Stimulator cells: EL-4 tumor cells (5.0×10^4 cells/well).
Suppressor cells: SMNCs (2.5×10^5 cells/well) obtained from the model of increased susceptibility to infections. […]
Before incubation, the cells except for the reaction cells were treated with 40 μg/ml of mitomycin C solution at 37° C. for 30 minutes. Twenty-four hours before the conclusion of 3-days incubation, 0.5 μCi/well of ^3 H-thymidine was added to the well, and the amount of ^3 H-thymidine incorporated into the reaction cells was determined in a liquid scintillation counter to evaluate the contrasuppressor cell activities induced against the suppressor cell activities by administration of the active ingredient of the present agent.
The contrasuppressor cell activities induced against suppressor cell activities by administration of benzoylmesaconine was evaluated in the same manner as in "(3) Measurement of contrasuppressor cell activities" in Experimental Example 1. […]

A further series concerns cytomegalovirus (CMV). The series is described as follows: Survival of thermally injured mice infected with cytomegalovirus (Experimental Example 7). The following applies: CMV 2.5×10^3 PFU/mouse i.v., 10 μg/kg/day oral, 25 days.
A further series has as its system CMV. The following applies: SCID mice, 10 μg/kg/day oral.
Series [7] relates to AIDS virus (LP-BM5 virus). Put plainly: Survival of opportunistic infection model mice infected with AIDS virus (LP-BM5 virus) (Experimental Example 3). It counts as in vivo. The following applies: 1 μg/kg oral, observed for 150 days, saline 0%. Here is the method:
Mice as opportunistic infection model inoculated intraperioneally with 0.1 ml/mouse of a culture supernatant of AIDS virus (LP-BM5 virus) infected SC-1 cells were orally given benzoylmesaconine or physiological saline.

The mark [8] stands for this setting: twenty-five days after infection.

Turning to `CCCCC[C@H](O)CC(=O)CCc1ccc(O)c(OC)c1` [gingerol], the “acute toxicity LD50” value in series [1] was “about 250 mg/kg”. For the same molecule, in series [2] (25 days), the average survival days is reported as > 24.4 days. This molecule gave a survival rate in series [2] (setting [8]) of 90%.

As for `COCC12CN(C)C3C4C(OC)C1C3(C(OC)CC2O)C1CC2(O)C(OC)C(=O)C4C1C2OC(=O)c1ccccc1` (stereo not drawn) [16-epi-pyromesaconitine], the LD50 in [3] lay in the range of 20 to 500 mg/kg. Besides, in series [4] (setting [8]), the responders at 0.001 mg/kg was 80%. Further, the average survival days in series [4] is recorded as > 22.4 days. Further, the “incorporation of ^3 H-thymidine” value in series [5] is 16891 ± 2232 CPM ± SE.

Molecule `CCN1CC2(COC)CCC(O)C34C5CC6C(OC)CC(O)(C5C6O)C(C(OC)C23)C14` (centres unmarked) [neoline] showed an LD50 in [3] of 20 to 500 mg/kg. Besides, in series [4] (setting [8]), the responders at 0.001 mg/kg came out at 80%. Besides, in series [4], the average survival days is recorded as > 22.3 days. Besides, the “incorporation of ^3 H-thymidine” value in [5] is listed as 13744 ± 526 CPM ± SE.

With `COCC12CN(C)C3C4C(OC)C1C3(C(OC)CC2O)C1CC2(O)C(O)C1C4(O)C(O)C2OC` (centres unmarked) [mesaconine], the LD50 in series [3] is 20 to 500 mg/kg. The responders at 0.001 mg/kg in series [4] (setting [8]) was determined as 85%. In series [4], the average survival days is given as > 23.1 days. The “incorporation of ^3 H-thymidine” value in series [5] is given as 15791 ± 2778 CPM ± SE.

On to `CCN1CC2(COC)C(O)CC(OC)C34C5CC6(O)C(OC)C(O)C(O)(C5C6OC(=O)c5ccccc5)C(C(OC)C23)C14` (centres unmarked) [benzoylaconine], for which the LD50 in [3] was 20 to 500 mg/kg. Further, in series [4] (setting [8]), the responders at 0.001 mg/kg worked out at 80%. Moreover, in series [4], the average survival days is on record as > 22.5 days. For the same molecule, the “incorporation of ^3 H-thymidine” value in series [5] is recorded as 16140 ± 1738 CPM ± SE.

For the molecule `COCC12CN(C)C3C4C(OC)C1C3(C(OC)CC2O)C1CC2(O)C(OC)C(O)C4(O)C1C2OC(=O)c1ccccc1` (centres unmarked) [benzoylmesaconine], the suppressing rate in series [6] (saline 81%) is given as 4%. The results for the “incorporation of ^3 H-thymidine” value in [6] (saline 1,730 ± 289) and in [5] were 8,826 ± 535 CPM ± SE and 14754 ± 1832 CPM ± SE, respectively. Moreover, the survival rate in the series with cytomegalovirus (CMV) (saline 0%) turned out to be 100%; in the series with CMV (CMV 2.5×10^3 PFU/mouse, saline 0%) it was 100%; in series [7] it was 80%. Besides, the values for the average survival days (in the series with cytomegalovirus (CMV) (saline 12.4); in series [4]) were > 22.1 days and > 21.5 days, respectively. The same molecule registered an LD50 in series [3] of 20 to 500 mg/kg. The “protective effect on CMV” value in the series with CMV is listed as “protective effect”. For the same molecule, in [4] (setting [8]), the responders at 0.001 mg/kg amounted to 85%.

The molecule `CCN1CC2(COC)C(O)CC(OC)C34C5CC6(O)C(OC)C(O)C(O)(C5C6OC(=O)c5ccc(OC)cc5)C(C(OC)C23)C14` (centres unmarked) [14-anisoylaconine] gave an LD50 in series [3] of 20 to 500 mg/kg. Moreover, the responders at 0.001 mg/kg in [4] (setting [8]) is 80%. Also, in [4], the average survival days is on record as > 22.5 days. Also, the “incorporation of ^3 H-thymidine” value in series [5] was 12720 ± 1578 CPM ± SE.

As to `CCN1CC2(COC)C(O)CC(OC)C34C5CC6(O)C(OC)C(=O)C(C5C6OC(=O)c5ccccc5)C(C(OC)C23)C14` (stereo not drawn) [16-epi-pyraconitine], the LD50 in [3] was 20 to 500 mg/kg. Moreover, the responders at 0.001 mg/kg in series [4] (setting [8]) worked out at 70%. Also, the average survival days in series [4] is recorded as > 21.2 days. Further, in series [5], the “incorporation of ^3 H-thymidine” value is 15654 ± 1209 CPM ± SE.

For `COCC12CCC(OC)C34C5CC6(O)C(O)C5C(O)(C(O)C6OC)C(C(OC)C13)C4N(C)C2` (centres unmarked) [hypaconine], the LD50 in [3] was 20 to 500 mg/kg. In addition, in series [4] (setting [8]), the responders at 0.001 mg/kg was 85%. Besides, the average survival days in [4] was > 23.1 days. For the same molecule, the “incorporation of ^3 H-thymidine” value in [5] is on record as 14111 ± 2232 CPM ± SE.

For the molecule `C=C1C2CCC3(C4CC5C6(C)CCCC5(C(O4)N(CCO)C6)C3C2)C1O` (centres unmarked) [ajaconine], the LD50 in series [3] was in the range of 20 to 500 mg/kg. The responders at 0.001 mg/kg in [4] (setting [8]) was found to be 80%. The average survival days in series [4] was > 22.3 days. Further, in [5], the “incorporation of ^3 H-thymidine” value is given as 17655 ± 1879 CPM ± SE.

For the molecule `C=C1[C@H]2C[C@@H]3[C@H]4N5C[C@@]6(C)[C@H]7[C@@H]5C[C@]3([C@@H]1O)[C@@](O)(C2)[C@]74C[C@@H](OC(=O)c1ccccc1)[C@@H]6O` [ignavine], the average survival days in series [4] is given as > 21.9 days. The same molecule showed a survival rate in [4] (setting [8]) of 75%. Moreover, the “incorporation of ^3 H-thymidine” value in [5] is listed as 12831 ± 2255 CPM ± SE.

With `COCC12CCC(OC)C34C5CC6(O)C(OC)C(O)C(O)(C5C6OC(=O)c5ccccc5)C(C(OC)C13)C4N(C)C2` (centres unmarked) [benzoylhypaconine], the LD50 in series [3] was 20 to 500 mg/kg. For the same molecule, the responders at 0.001 mg/kg in series [4] (setting [8]) was 80%. Also, the average survival days in series [4] is listed as > 22.4 days. Besides, the “incorporation of ^3 H-thymidine” value in [5] is recorded as 21319 ± 903 CPM ± SE.
